Read-outs that look alike come from different tables or passages of the source.

The subject of one assay is MIA PaCa-2 cells. Put plainly: Growth inhibition activity on KRAS-G12C mutant cell line (CellTiter-Glo 3D). It is filed as cell-based, human. As to conditions: Homo sapiens, MIA PaCa-2, 72 h, MIA PaCa-2, 3-day culture with compound; Table 3-1. A digest of the protocol:
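IC50 (nM) derived from inhibition of luminescence (CellTiter-Glo 3D) relative to compound-free wells. Cells were seeded in U-bottom plates, grown 1 day, then exposed to compound for 3 days at 37 °C with 0.2% final DMSO.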
For orientation: Cellular ATP, detected with luciferase, serves as a proxy for viable cell number.

Assay [1] has as its target T1, interaction between GMPPNP-bound recombinant K-Ras4B G12C mutant protein and cRAF RAS-binding domain (cRAF-RBD) (Homo sapiens, UniProt P01116, G12C).
T1 construct: His-tag (N)
Nature of the assay: Inhibitory activity on interaction between KRAS G12C and cRAF (Alpha technology). The conditions noted are these: Table 2-1. A digest of the protocol: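 Alpha signal measured 1.5 h after adding cRAF-RBD (aa 50-132) and detection reagents to GMPPNP-bound KRAS G12C (aa 1-169) pretreated 1 h at 25° C with compound (pH 7.5 buffer). 0% inhibition = DMSO, 100% = GDP-loaded KRAS; IC50 by curve fit.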

[2] abbreviates: GMPPNP-bound KRAS G12C incubated with compound 25° C. 1 hour, read-out: IC50.
Where [3] appears, read: IC50, GMPPNP-bound KRAS G12C incubated with compound 25° C. 1 hour.

T1 sequence (P01116 with tags, fused parts or gaps isoform P01116-2 G12C): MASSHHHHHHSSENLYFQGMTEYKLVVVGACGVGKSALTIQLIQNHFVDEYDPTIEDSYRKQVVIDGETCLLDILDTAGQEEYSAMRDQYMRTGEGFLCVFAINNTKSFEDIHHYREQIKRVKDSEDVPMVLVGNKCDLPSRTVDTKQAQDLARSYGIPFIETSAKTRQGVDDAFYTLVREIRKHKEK

With `Cn1cnc2c3c(c(C(F)(F)F)cc21)-c1cccn2c(C(=O)c4cc(F)c(NC(=O)/C=C/CN5CCC5)c(F)c4)cc(c12)CCO3` [Example 161, (E)-4-(azetidin-1-yl)-N-(2,6-difluoro-4-(9-methyl-7-(trifluoromethyl)-13,14-dihydro-9H-imidazo-[4″,5″:5′,6′]benzo[1′,2′: 2,3]oxocino[4,5,6-hi]-indolizine-2-carbonyl)-phenyl)but-2-enamide], the IC50 with MIA PaCa-2 cells was determined as 21.6 nM; in assay [1] (setting [2]), 63.2 nM.

On to `COc1cc2c(ncn2C)c2c1-c1cccn3c(C(=O)c4cc(F)c(NC(=O)/C=C/CNC5(C)CC5)c(F)c4)cc(c13)CCN2C` (single isomer, unassigned) [Example 160, (E)-N-(2,6-difluoro-4-(7-methoxy-9,12-dimethyl-9,12,13,14-tetrahydro-imidazo[4″,5″:5′,6′]benzo-[1′,2′:2,3]azocino[4,5,6-hi]indolizine-2-carbon-yl)phenyl)-4-((1-methyl-cyclopropyl)amino)but-2-enamide], for which the IC50 in the assay on MIA PaCa-2 cells turned out to be 9.25 nM; in assay [1] (setting [2]) it was 5.71 nM.

Turning to `Cc1cc2c(nc(C)n2C)c2c1-c1cccn3c(C(=O)c4cc(F)c(NC(=O)/C=C/CNC5(C)CCOCC5)c(F)c4)cc(c13)CCN2C` [Example 57, (E)-N-(2,6-difluoro-4-(7,9,10,12-tetramethyl-9,12,13,14-tetrahydro-imidazo[4″,5″:5′,6′]benzo-[1′,2′:2,3]azocino[4,5,6-hi]indolizine-2-carbonyl)-phenyl)-4-((4-methyltetra-hydro-2H-pyran-4-yl)-amino)but-2-enamide], the values for the IC50 (in the assay with MIA PaCa-2 cells; in assay [1] (setting [2])) were 68.5 nM and 78.3 nM, respectively.

With `COC[C@@H]1CCN1C/C=C/C(=O)Nc1c(F)cc(C(=O)c2cc3c4c(cccn24)-c2c(C(F)(F)F)cc4c(ncn4C)c2OCC3)cc1F` [Example 169, (S,E)-N-(2,6-difluoro-4-(9-methyl-7-(trifluoro-methyl)-13,14-dihydro-9H-imidazo[4″,5″:5′,6′]-benzo[1′,2′:2,3]oxocino-[4,5,6-hi]indolizine-2-carbonyl)phenyl)-4-(2-(methoxymethyl)azetidin-1-yl)but-2-enamide], the IC50 amounted to 15 nM in the assay on MIA PaCa-2 cells and 59.6 nM in assay [1] (setting [2]).

As for `CCN(CC)[C@H]1CC[C@H](NC/C=C/C(=O)Nc2c(F)cc(C(=O)c3cn4c5c(cccc35)-c3c(C(F)(F)F)cc5c(nc(C)n5C)c3N(C)CC4)cc2F)CC1` [Example 102, (E)-4-(((1r,4r)-4-(diethyl-amino)cyclohexyl)amino)-N-(2,6-difluoro-4-(8,9,11-trimethyl-6-(trifluoro-methyl)-8,11,12,13-tetra-hydroimidazo[4″,5″:5′,6′]-benzo[1′,2′:5,6][1,4]-diazocino[7,8,1-hi]indole-2-carbonyl)phenyl)but-2-enamide], the figures for the IC50 (in the assay with MIA PaCa-2 cells; in assay [1] (setting [3])) were 10.5 nM and 11.2 nM, respectively.

`Cn1cnc2c3c(c(C(F)(F)F)cc21)-c1cccn2c(C(=O)c4cc(F)c(NC(=O)/C=C/CN[C@H]5[C@@H]6COC[C@@H]65)c(F)c4)cc(c12)CCO3` [Example 147, (E)-4-(((1R,5S,6r)-3-oxa-bicyclo[3.1.0]hexan-6-yl)amino)-N-(2,6-difluoro-4-(9-methyl-7-(trifluoro-methyl)-13,14-dihydro-9H-imidazo[4″,5″:5′,6′]-benzo[1′,2′:2,3]oxocino-[4,5,6-hi]indolizine-2-carbonyl)phenyl)but-2-enamide]: the IC50 was found to be 15.3 nM in the assay on MIA PaCa-2 cells and 7.49 nM in assay [1] (setting [2]).

On to `CC1(NC/C=C/C(=O)Nc2c(F)cc(C(=O)c3cc4c5c(cccn35)-c3c(cc(N5CCOC5=O)cc3C(F)(F)F)OCC4)cc2F)CC1` [Example 232, (E)-N-(2,6-difluoro-4-(7-(2-oxooxazolidin-3-yl)-9-(trifluoromethyl)-3.4-dihydrobenzo[2,3]oxo-cino-[4,5,6-hi]indolizine-1-carbonyl)phenyl)-4-((1-methylcyclopropyl)amino)-but-2-enamide], for which the IC50 is 18 nM in the assay on MIA PaCa-2 cells and 49.7 nM in assay [1] (setting [2]).

On to `CN1CCc2cc(C(=O)c3cc(F)c(NC(=O)/C=C/CN4[C@@H]5CC[C@H]4[C@H](O)C5)c(F)c3)n3cccc(c23)-c2c(C(F)(F)F)cc3c(ncn3C)c21` (single isomer, unassigned) [Example 206], for which the IC50 in the assay on MIA PaCa-2 cells is 10.3 nM; in assay [1] (setting [2]), 15.4 nM.

As for `CN1CCc2cc(C(=O)c3cc(F)c(NC(=O)/C=C/CN4CCC[C@H]4CO)c(F)c3)n3cccc(c23)-c2c(C(F)(F)F)cc3c(ncn3C)c21` [Example 227, (S,E)-N-(4-(9,12-dimeth-yl-7-(trifluoromethyl)-9,12,13,14-tetrahydro-imidazo[4″,5″:5′,6′]benzo-[1′,2′:2,3]azocino[4,5,6-hi]indolizine-2-carbonyl)-2,6-difluorophenyl)-4-(2-(hydroxymethyl)pyrrol-idin-1-yl)but-2-enamide], the IC50 was found to be 10.2 nM in the assay with MIA PaCa-2 cells and 34 nM in assay [1] (setting [2]).

As to `Cc1cc2c(nc(C)n2C)c2c1-c1cccc3c(C(=O)c4cc(F)c(NC(=O)/C=C/CNC5COC(C)(C)C5)c(F)c4)cn(c13)CCN2C` (centres unmarked) [Example 124, (E)-N-(2,6-difluoro-4-(6,8,9,11-tetramethyl-8,11,12,13-tetrahydro-imidazo[4″,5″:5′,6′]benzo-[1′,2′:5,6][1,4]diazocino-[7,8,1-hi]indole-2-carbon-yl)phenyl)-4-((5,5-dimeth-yltetrabydrofuran-3-yl)-amino)but-2-enamide], the IC50 with MIA PaCa-2 cells is 13.7 nM; in assay [1] (setting [3]), 13 nM.

With `CO[C@H]1CC[C@H](NC/C=C/C(=O)Nc2ccc(C(=O)c3cn4c5c(cccc35)-c3c(C(F)(F)F)cc5c(nc(C)n5C)c3N(C)CC4)nc2)CC1` [Example 88, (E)-4-(((1r,4r)-4-methoxy-cyclohexyl)amino)-N-(6-(8,9,11-trimethyl-6-(trifluoromethyl)-8,11,12,13-tetrahydro-imidazo[4″,5″:5′,6′]benzo-[1′,2′:5,6][1,4]diazocino-[7,8,1-hi]indole-2-carbon-yl)pyridin-3-yl)but-2-enamide], the IC50 in the assay with MIA PaCa-2 cells came out at 6.92 nM; in assay [1] (setting [2]) it was 39.5 nM.

With `COCc1nc2c3c(c(C(F)(F)F)cc2n1C)-c1cccn2c(C(=O)c4cc(F)c(NC(=O)/C=C/CN[C@H]5CCOC5)c(F)c4)nc(c12)CCN3C` (single isomer, unassigned) [Example 184], the IC50 came to 28.1 nM in the assay on MIA PaCa-2 cells and 48.3 nM in assay [1] (setting [2]).

With `Cc1nc2c3c(c(C(F)(F)F)cc2n1C)-c1cccn2c(C(=O)c4cc(F)c(NC(=O)/C=C/CN[C@@H]5COC[C@H]5O)c(F)c4)cc(c12)CCN3C` [Example 137], the IC50 with MIA PaCa-2 cells came out at 14.9 nM; in assay [1] (setting [2]), 33.5 nM.

For the compound `CO[C@H]1CC[C@H](NC/C=C/C(=O)Nc2c(F)cc(C(=O)c3cc4c5c(cccn35)-c3c(C)cc5c(ncn5C)c3N(C)CC4)cc2F)CC1` [Example 110, (E)-N-(2,6-difluoro-4-(7,9,12-trimethyl-9,12,13,14-tetrahydro-imidazo[4″,5″:5′,6′]benzo-[1′,2′:2,3]azocino[4,5,6-hi]indolizine-2-carbon-yl)phenyl)-4-(((1r,4r)-4-methoxycyclohexyl)-amino)but-2-enamide], the values for the IC50 (with MIA PaCa-2 cells; in assay [1] (setting [2])) were 55.8 nM and 35.7 nM, respectively.

In the case of `Cn1cnc2c3c(c(C(F)(F)F)cc21)-c1cccn2c(C(=O)c4cc(F)c(NC(=O)/C=C/CN5CCCOCC5)c(F)c4)cc(c12)CCO3` [Example 193, (E)-N-(2,6-difluoro-4-(9-methyl-7-(trifluorometh-yl)-13,14-dihydro-9H-imidazo[4″,5″:5′,6′]benzo-[1′,2′:2,3]oxocino[4,5,6-hi]indolizine-2-carbonyl)-phenyl)-4-(1,4-oxazepan-4-yl)but-2-enamide], the results for the IC50 (in the assay on MIA PaCa-2 cells; in assay [1] (setting [2])) were 69.5 nM and 39.6 nM, respectively.

With `COc1cc2c(nc(C)n2C)c2c1-c1cccn3c(C(=O)c4cc(F)c(NC(=O)/C=C/CNC5(C)COC5)c(F)c4)cc(c13)CCN2C` (single isomer, unassigned) [Example 141, (E)-N-(2,6-difluoro-4-(7-methoxy-9,10,12-trimethyl-9,12,13,14-tetrahydroimidazo[4″,5″: 5′,6′]benzo[1′,2′:2,3]-azocino[4,5,6-hi]indol-izine-2-carbonyl)phenyl)-4-((3-methyloxetan-3-yl)-amino)but-2-enamide], the half-maximal inhibitory concentration (IC50) in the assay with MIA PaCa-2 cells came to 34.3 nM; in assay [1] (setting [2]), 9.71 nM.

Take `COCc1nc2c3c(c(C)cc2n1C)-c1cccn2c(C(=O)c4cc(F)c(NC(=O)/C=C/CN[C@H]5CC[C@H](OC)CC5)c(F)c4)cc(c12)CCN3C` (single isomer, unassigned) [Example 105, (E)-N-(2,6-difluoro-4-(10-(methoxymethyl)-7,9,12-trimethyl-9,12,13,14-tetra-hydroimidazo[4″,5″:5′,6′]-benzo[1′,2′:2,3]azocino-[4,5,6-hi]indolizine-2-carbonyl)phenyl)-4-(((1r,4r)-4-methoxycyclo-hexyl)amino)but-2-en-amide]: the IC50 in the assay on MIA PaCa-2 cells is 15.5 nM; in assay [1] (setting [2]), 19.2 nM.

In the case of `CN1CCc2cc(C(=O)c3cc(F)c(NC(=O)/C=C/CNC4(C)COC4)c(F)c3)n3cccc(c23)-c2c(C(F)(F)F)cc3c(ncn3C)c21` (single isomer, unassigned) [Example 83], the IC50 with MIA PaCa-2 cells was found to be 15.4 nM; in assay [1] (setting [2]) it was 33.9 nM.

On to `Cc1cc2c(ncn2C)c2c1-c1cccn3c(C(=O)c4cc(F)c(NC(=O)/C=C/CNC5(C)CCOCC5)c(F)c4)cc(c13)CCN2C` [Example 116], for which the IC50 was 29.9 nM with MIA PaCa-2 cells and 26.6 nM in assay [1] (setting [2]).

What is called IC50 is the concentration that inhibits the measured activity by half.

Values taken from patent publication US20240262842A1, “SMALL MOLECULE INHIBITORS OF KRAS G12C MUTANT” (Merck Sharp & Dohme LLC, priority 2021, published 2024).
